The test system of test [1] is HCV genotype 1b (Con1) replicon in HUH-7 cells. As to the kind of experiment: HCV replicon luciferase reporter assay, genotype 1b. Format: cell-based. As to conditions: Hepatitis C virus, Huh-7, 72 h, HCV genotype 1b replicon luciferase assay, 3 days incubation, range class, read-out: LE_1b (EC50, range). The method, boiled down:
(§1)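 Replicon inhibition for both genotypes was measured as Renilla luciferase signal (EnduRen, 7.5 μM final, 2 h) after 3-day, 37° C exposure of replicon-bearing HUH-7 cells in 4% FCS DMEM, 0.5% DMSO. The 1b construct carries S1179I; the 1a H77 construct carries P1496L and S2204I. Twenty-point, 3-fold dilutions were fitted four-parametrically for EC50, and CC50 was taken from multiplexed Cell Titer-Blue.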
On the technique in general: A replicon is a self-replicating genome or part of one, used to study replication in cells.

The test system of test [2] is HCV genotype 1a (H77 strain) replicon in HUH-7 cells. As to the kind of experiment: HCV replicon luciferase reporter assay, genotype 1a. The following applies: Hepatitis C virus, Huh-7, 72 h, HCV genotype 1a replicon luciferase assay, 3 days incubation, range class, read-out: LE_1a (EC50, range). Format: cell-based. The method, boiled down:
as §1

This note sets out measurements from US9499550B2 (BRISTOL-MYERS SQUIBB COMPANY, priority 2012, dated 2016).

Each structure is given as a SMILES string.

As usually defined, the EC50 is the midpoint of the concentration-response curve. `COc1ccc2c(O[C@@H]3C[C@H]4C(=O)N[C@]5(C(=O)NS(=O)(=O)C6(C)CC6)C[C@H]5/C=C\CC[C@H](C)C[C@@H](C)[C@H](NC(=O)OCC5(C)CC5)C(=O)N4C3)nc(-c3ccc(OC(C)C)c(F)c3)cc2c1` [Compound 3067, (1-methylcyclopropyl)methyl ((2R,6S,7R,9S,13aS,14aR,16aS,Z)-2-((3-(3-fluoro-4-isopropoxyphenyl)-6-methoxyisoquinolin-1-yl)oxy)-7,9-dimethyl-14a-(((1-methylcyclopropyl)sulfonyl)carbamoyl)-5,16-dioxo-1,2,3,5,6,7,8,9,10,11,13a,14,14a,15,16,16a-hexadecahydrocyclopropa[e]pyrrolo[1,2-a][1,4]diazacyclopentadecin-6-yl)carbamate]: the EC50 in test [1] was below 5.46 nM; in test [2], 4.82 to 103 nM.

Turning to `COc1ccc2c(O[C@@H]3C[C@H]4C(=O)N[C@]5(C(=O)NS(=O)(=O)C6(C)CC6)C[C@H]5/C=C\CC[C@@H](C)C[C@@H](C)[C@H](NC(=O)OCC5(C)CC5)C(=O)N4C3)nc(-c3ccc(OC(C)C)c(F)c3)cc2c1` [Compound 3068, (1-methylcyclopropyl)methyl ((2R,6S,7R,9R,13aS,14aR,16aS,Z)-2-((3-(3-fluoro-4-isopropoxyphenyl)-6-methoxyisoquinolin-1-yl)oxy)-7,9-dimethyl-14a-(((1-methylcyclopropyl)sulfonyl)carbamoyl)-5,16-dioxo-1,2,3,5,6,7,8,9,10,11,13a,14,14a,15,16,16a-hexadecahydrocyclopropa[e]pyrrolo[1,2-a][1,4]diazacyclopentadecin-6-yl)carbamate], the EC50 in test [1] and in test [2] was below 5.46 nM each time.

For the compound `COc1ccc2c(O[C@@H]3C[C@H]4C(=O)N[C@]5(C(=O)NS(=O)(=O)C6CC6)C[C@H]5/C=C\CC[C@H](C)C[C@@H](C)[C@H](NC(=O)O[C@@H]5C[C@@H]6C[C@@H]6C5)C(=O)N4C3)nc(-c3ccc(OC(C)C)c(F)c3)cc2c1` [Compound 3069, (1R,3r,5S)-bicyclo[3.1.0]hexan-3-yl((2R,6S,7R,9S,13aS,14aR,16aS,Z)-14a-((cyclopropylsulfonyl)carbamoyl)-2-((3-(3-fluoro-4-isopropoxyphenyl)-6-methoxyisoquinolin-1-yl)oxy)-7,9-dimethyl-5,16-dioxo-1,2,3,5,6,7,8,9,10,11,13a,14,14a,15,16,16a-hexadecahydrocyclopropa[e]pyrrolo[1,2-a][1,4]diazacyclopentadecin-6-yl)carbamate], the EC50 in test [1] is below 5.46 nM; in test [2], 4.82 to 103 nM.

In the case of `COc1ccc2c(O[C@@H]3C[C@H]4C(=O)N[C@]5(C(=O)NS(=O)(=O)C6CC6)C[C@H]5/C=C\CC[C@@H](C)C[C@@H](C)[C@H](NC(=O)O[C@@H]5C[C@@H]6C[C@@H]6C5)C(=O)N4C3)nc(-c3ccc(OC(C)C)c(F)c3)cc2c1` [Compound 3070, (1R,3r,5S)-bicyclo[3.1.0]hexan-3-yl((2R,6S,7R,9R,13aS,14aR,16aS,Z)-14a-((cyclopropylsulfonyl)carbamoyl)-2-((3-(3-fluoro-4-isopropoxyphenyl)-6-methoxyisoquinolin-1-yl)oxy)-7,9-dimethyl-5,16-dioxo-1,2,3,5,6,7,8,9,10,11,13a,14,14a,15,16,16a-hexadecahydrocyclopropa[e]pyrrolo[1,2-a][1,4]diazacyclopentadecin-6-yl)carbamate], the EC50 in test [1] and in test [2] was below 5.46 nM each time.

With `COc1ccc2c(O[C@@H]3C[C@H]4C(=O)N[C@]5(C(=O)NS(=O)(=O)C6(C)CC6)C[C@H]5/C=C\CC[C@H](C)C[C@@H](C)[C@H](NC(=O)O[C@@H]5C[C@@H]6C[C@@H]6C5)C(=O)N4C3)nc(-c3ccc(OC(C)C)c(F)c3)cc2c1` [Compound 3071, (1R,3r,5S)-bicyclo[3.1.0]hexan-3-yl((2R,6S,7R,9S,13aS,14aR,16aS,Z)-2-((3-(3-fluoro-4-isopropoxyphenyl)-6-methoxyisoquinolin-1-yl)oxy)-7,9-dimethyl-14a-(((1-methylcyclopropyl)sulfonyl)carbamoyl)-5,16-dioxo-1,2,3,5,6,7,8,9,10,11,13a,14,14a,15,16,16a-hexadecahydrocyclopropa[e]pyrrolo[1,2-a][1,4]diazacyclopentadecin-6-yl)carbamate], the EC50 in test [1] is below 5.46 nM; in test [2] it was 4.82 to 103 nM.

For the compound `COc1ccc2c(O[C@@H]3C[C@H]4C(=O)N[C@]5(C(=O)NS(=O)(=O)C6(C)CC6)C[C@H]5/C=C\CC[C@@H](C)C[C@@H](C)[C@H](NC(=O)O[C@@H]5C[C@@H]6C[C@@H]6C5)C(=O)N4C3)nc(-c3ccc(OC(C)C)c(F)c3)cc2c1` [Compound 3072, (1R,3r,5S)-bicyclo[3.1.0]hexan-3-yl((2R,6S,7R,9R,13aS,14aR,16aS,Z)-2-((3-(3-fluoro-4-isopropoxyphenyl)-6-methoxyisoquinolin-1-yl)oxy)-7,9-dimethyl-14a-(((1-methylcyclopropyl)sulfonyl)carbamoyl)-5,16-dioxo-1,2,3,5,6,7,8,9,10,11,13a,14,14a,15,16,16a-hexadecahydrocyclopropa[e]pyrrolo[1,2-a][1,4]diazacyclopentadecin-6-yl)carbamate], the concentration giving a half-maximal response (EC50) in test [1] and in test [2] was below 5.46 nM throughout.

In the case of `COc1ccc2c(O[C@@H]3C[C@H]4C(=O)N[C@]5(C(=O)NS(=O)(=O)C6CC6)C[C@H]5/C=C\CC[C@H](C)C[C@@H](C)[C@H](NC(=O)O[C@H](C)C(F)(F)F)C(=O)N4C3)nc(-c3ccc(OC(C)C)c(F)c3)cc2c1` [Compound 3073, (R)-1,1,1-trifluoropropan-2-yl ((2R,6S,7R,9S,13aS,14aR,16aS,Z)-14a-((cyclopropylsulfonyl)carbamoyl)-2-((3-(3-fluoro-4-isopropoxyphenyl)-6-methoxyisoquinolin-1-yl)oxy)-7,9-dimethyl-5,16-dioxo-1,2,3,5,6,7,8,9,10,11,13a,14,14a,15,16,16a-hexadecahydrocyclopropa[e]pyrrolo[1,2-a][1,4]diazacyclopentadecin-6-yl)carbamate], the EC50 was below 5.46 nM in test [1] and 4.82 to 103 nM in test [2].

For the compound `COc1ccc2c(O[C@@H]3C[C@H]4C(=O)N[C@]5(C(=O)NS(=O)(=O)C6CC6)C[C@H]5/C=C\CC[C@@H](C)C[C@@H](C)[C@H](NC(=O)O[C@H](C)C(F)(F)F)C(=O)N4C3)nc(-c3ccc(OC(C)C)c(F)c3)cc2c1` [Compound 3074, (R)-1,1,1-trifluoropropan-2-yl ((2R,6S,7R,9R,13aS,14aR,16aS,Z)-14a-((cyclopropylsulfonyl)carbamoyl)-2-((3-(3-fluoro-4-isopropoxyphenyl)-6-methoxyisoquinolin-1-yl)oxy)-7,9-dimethyl-5,16-dioxo-1,2,3,5,6,7,8,9,10,11,13a,14,14a,15,16,16a-hexadecahydrocyclopropa[e]pyrrolo[1,2-a][1,4]diazacyclopentadecin-6-yl)carbamate], the 50% effective concentration (EC50) in test [1] and in test [2] was below 5.46 nM in each case.

In the case of `COc1ccc2c(O[C@@H]3C[C@H]4C(=O)N[C@]5(C(=O)NS(=O)(=O)C6(C)CC6)C[C@H]5/C=C\CC[C@H](C)C[C@@H](C)[C@H](NC(=O)O[C@H](C)C(F)(F)F)C(=O)N4C3)nc(-c3ccc(OC(C)C)c(F)c3)cc2c1` [Compound 3075, (R)-1,1,1-trifluoropropan-2-yl ((2R,6S,7R,9S,13aS,14aR,16aS,Z)-2-((3-(3-fluoro-4-isopropoxyphenyl)-6-methoxyisoquinolin-1-yl)oxy)-7,9-dimethyl-14a-(((1-methylcyclopropyl)sulfonyl)carbamoyl)-5,16-dioxo-1,2,3,5,6,7,8,9,10,11,13a,14,14a,15,16,16a-hexadecahydrocyclopropa[e]pyrrolo[1,2-a][1,4]diazacyclopentadecin-6-yl)carbamate], the EC50 is below 5.46 nM in test [1] and 4.82 to 103 nM in test [2].

With `COc1ccc2c(O[C@@H]3C[C@H]4C(=O)N[C@]5(C(=O)NS(=O)(=O)C6(C)CC6)C[C@H]5/C=C\CC[C@@H](C)C[C@@H](C)[C@H](NC(=O)O[C@H](C)C(F)(F)F)C(=O)N4C3)nc(-c3ccc(OC(C)C)c(F)c3)cc2c1` [Compound 3076, (R)-1,1,1-trifluoropropan-2-yl ((2R,6S,7R,9R,13aS,14aR,16aS,Z)-2-((3-(3-fluoro-4-isopropoxyphenyl)-6-methoxyisoquinolin-1-yl)oxy)-7,9-dimethyl-14a-(((1-methylcyclopropyl)sulfonyl)carbamoyl)-5,16-dioxo-1,2,3,5,6,7,8,9,10,11,13a,14,14a,15,16,16a-hexadecahydrocyclopropa[e]pyrrolo[1,2-a][1,4]diazacyclopentadecin-6-yl)carbamate], the EC50 in test [1] and in test [2] was below 5.46 nM each time.

As to `COc1ccc2c(O[C@@H]3C[C@H]4C(=O)N[C@]5(C(=O)NS(=O)(=O)C6(C)CC6)C[C@H]5/C=C\CC[C@H](C)C[C@@H](C)[C@H](NC(=O)OC(C)(C)C(F)(F)F)C(=O)N4C3)nc(-c3ccc(OC(C)C)c(F)c3)cc2c1` [Compound 3077, 1,1,1-trifluoro-2-methylpropan-2-yl((2R,6S,7R,9S,13aS,14aR,16aS,Z)-2-((3-(3-fluoro-4-isopropoxyphenyl)-6-methoxyisoquinolin-1-yl)oxy)-7,9-dimethyl-14a-(((1-methylcyclopropyl)sulfonyl)carbamoyl)-5,16-dioxo-1,2,3,5,6,7,8,9,10,11,13a,14,14a,15,16,16a-hexadecahydrocyclopropa[e]pyrrolo[1,2-a][1,4]diazacyclopentadecin-6-yl)carbamate], the values for the concentration for a half-maximal effect (EC50) in test [1] and in test [2] were below 5.46 nM and 4.82 to 103 nM, respectively.
